What all share (assay): NCI-60 cell line screen, 48 h
For experiment [1], the system named is LOX IMVI melanoma.
For experiment [2], the system named is HT29 colon.
The test system of experiment [3] is OVCAR-3 ovarian.
Experiment [4] has as its system PC-3 prostate.
Experiment [5] has as its system HCC-2998 colon.
Experiment [6] relates to HL-60(TB) leukemia.
The test system of experiment [7] is MDA-MB-435.
Experiment [8] relates to IGROV1 ovarian.
In experiment [9] the test system is CCRF-CEM leukemia.
Experiment [10] has as its system OVCAR-4 ovarian.
The subject of experiment [11] is K-562 leukemia.
In experiment [12] the test system is SF-295 CNS.
Experiment [13] has as its system HS 578T breast.
Experiment [14] concerns HCT-15 colon.
The subject of experiment [15] is 786-0 renal.
The test system of experiment [16] is TK-10 renal.
The subject of experiment [17] is SNB-75 CNS.
Experiment [18] relates to SK-MEL-2 melanoma.
The test system of experiment [19] is OVCAR-8 ovarian.
Experiment [20] has as its system SK-MEL-28 melanoma.

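These data come from cells grown in 96-well plates and exposed to compound for 48 hours at five concentrations. The concentration for full growth arrest is given as TGI.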

Take `CCOC(=O)C(Cl)(NC(=O)c1c(F)c(F)c(F)c(F)c1F)C(F)(F)F` (stereo not given): the TGI in [1], in experiment [2], in [3], in experiment [4], in experiment [5] and in [6] was over 100 µM each time. The TGI in experiment [7], in experiment [8], in experiment [9], in experiment [10], in [11] and in [12] was over 100 µM each time. Further, the TGI in experiment [13], in experiment [14], in experiment [15], in experiment [16], in [17] and in [18] was over 100 µM each time. Besides, the TGI in experiment [19] and in experiment [20] was over 100 µM each time.

Regarding `Cc1cc(C)nc(SC(C)C(=O)N/N=C/c2ccc(OCc3ccccc3)cc2)n1` (stereo not given), the TGI was over 100 µM in [1]; over 100 µM in experiment [2]; over 100 µM in [3]; 58.7 µM in [4]; over 100 µM in [5]; 38.3 µM in experiment [6]. The TGI in experiment [7], in [8], in [9], in experiment [10], in experiment [11] and in [12] was over 100 µM each time. Also, the TGI in experiment [13] was over 100 µM; in experiment [14], over 100 µM; in experiment [15] it was over 100 µM; in [16], over 100 µM; in experiment [17], over 100 µM; in experiment [18], 46.1 µM. Further, the TGI in experiment [19] and in experiment [20] was over 100 µM in each case.

For `NCCCNC1(c2cc3ccccc3s2)CCCCC1`, the TGI in [1] worked out at 6.86 µM; in experiment [2], 10.9 µM; in experiment [3], 22.6 µM; in [4], 21 µM; in experiment [5], 2.98 µM; in experiment [6], 14.8 µM. The TGI in experiment [7] was determined as 4.48 µM; in experiment [8], 24.3 µM; in [9], 13 µM; in [10], 25.5 µM; in experiment [11], 5.38 µM; in experiment [12], 24.8 µM. Further, the TGI in [13] is 30.2 µM; in experiment [14], 17.7 µM; in experiment [15], 5.27 µM; in experiment [16] it was 12 µM; in [17], 24.2 µM; in experiment [18], 4.2 µM. In addition, the TGI was found to be 24.4 µM in experiment [19] and 4.59 µM in experiment [20].

With `C#CC1(O)C(COP(=O)(O)OCC2OC(n3ccc(NCCCCCCCCCCCCCCCCCC)nc3=O)C(O)C2O)OC(n2ccc(N)nc2=O)C1O` (stereo not given), the TGI in experiment [1] was 11.1 µM; in [2] it was over 95 µM; in experiment [3] it was 62.1 µM; in experiment [4], 31.7 µM; in experiment [5] it was over 34.5 µM; in experiment [6], 19.5 µM. In addition, the TGI is 7.57 µM in experiment [7]; 6.02 µM in [8]; over 100 µM in experiment [9]; 34.8 µM in experiment [10]; 19.9 µM in experiment [11]; 18.6 µM in [12]. Further, the TGI in experiment [13] was 45.2 µM; in experiment [14] it was 36.6 µM; in [15], over 100 µM; in [16], 19.1 µM; in experiment [17], 45.9 µM; in experiment [18] it was 5.3 µM. Further, the TGI turned out to be 35.3 µM in [19] and 31.6 µM in [20].

`CCCCCCCCCCCCCC[S+](C)C`: the TGI was 4.34 µM in [1]; 4.93 µM in experiment [2]; 4.03 µM in experiment [3]; 2.98 µM in experiment [4]; 3.49 µM in [5]; 2.47 µM in experiment [6]. Moreover, the TGI is 4.35 µM in experiment [7]; 2.33 µM in [8]; 3.25 µM in experiment [9]; 7.31 µM in experiment [10]; 4.68 µM in experiment [11]; over 10 µM in experiment [12]. Also, the TGI in experiment [13] is 3.78 µM; in experiment [14], over 10 µM; in experiment [15] it was 2.61 µM; in [16], 3.75 µM; in experiment [17], 3.51 µM; in experiment [18], 5.13 µM. In addition, the TGI came out at 3.58 µM in experiment [19] and 8.5 µM in experiment [20].

For `CC(C)[Si](OC1=CCC[C@H]2NC(=O)[C@@H](Cc3ccccc3)[C@@]12C)(C(C)C)C(C)C`, the TGI in [1] amounted to 11.2 µM; in experiment [2] it was 12.1 µM; in experiment [3] it was 19.7 µM; in [4] it was 12.3 µM; in [5], 4.42 µM; in experiment [6], 7.82 µM. For the same compound, the TGI in [7] came out at 13.4 µM; in experiment [8], 26.7 µM; in experiment [9], 10.2 µM; in experiment [10] it was 19.7 µM; in experiment [11] it was 12.5 µM; in [12], 17.2 µM. The TGI is 18.5 µM in experiment [13]; 15.6 µM in experiment [14]; 14.9 µM in [15]; 21.7 µM in [16]; 31.2 µM in [17]; 29.7 µM in experiment [18]. Further, the TGI stood at 24.8 µM in experiment [19] and 13.1 µM in experiment [20].

The record behind these values is PubChem BioAssay (NCI).
